Data published in patent US10195179B2, “Spiro-lactam NMDA receptor modulators and uses thereof” (Aptinyx Inc., priority 2016, dated 2019).

What was measured:
[1] = test system: rat Schaffer collateral-evoked NMDA fEPSPs recorded in CA1 pyramidal neurons; test: Long-term potentiation in hippocampal slices; format: cell-based; conditions: bath application 100 nm, 500 nm, 2 μM
Protocol: Assays were conducted as described in Zhang et al. (Zhang, X. L., Sullivan, J. A., Moskal., J. R., Stanton, P. K., 2008. A NMDA receptor glycine site partial agonist, GLYX-13, simultaneously enhances LTP and reduces LTD at Schaffer collateral-CA1 synapses in hippocampus. Neuropharmacology, 55, 1238-50). See also Burgdorf, J, Zhang X L, Nicholson K L, Balster R L, Leander J D, Stanton P K, Gross A L, Kroes R A, Moskal J R (2013), GLYX-13, a NMDA receptor glycine-site functional partial agonist, induces antidepressant-like effects without ketamine-like side effects, Neuropsychopharmacology: official publication of the American College of Neuropsychopharmacology 38:729-742. […] A bipolar tungsten ystimulating electrode (FHC Co.) was placed on Schaffer collateral-commissural fibers in CA3 stratum radiatum, and constant current stimulus intensity adjusted to evoke approximately half-maximal fEPSPs once each 30 s ([…]; 100 μs duration). fEPSP slope was measured before and after induction of LTP by linear interpolation from 20 to 80% of maximum negative deflection, and slopes confirmed to be stable to within ±10% for at least 15 min before commencing an experiment. […] The signals were recorded using a Multiclamp 700B amplifier and digitized with a Digidata 1322 (Axon Instruments, USA).

Sprague Dawley rats = test: Blast-induced traumatic brain injury/cognitive deficits measured by PEL; format: in vivo, rat; conditions: 10 mg/kg PO 1 h post-blast, PEL 48 hours post-blast
Text: Single blast-induced traumatic brain injury/cognitive deficits were induced, modified for use in rats according to the protocol of Goldstein et al., “Chronic traumatic encephalopathy in blast-exposed military veterans and a blast neurotrauma mouse model,” Science Translational Medicine, Vol. 4, Issue 134, pp. 134ra60, 2012. Male 2-3 month old Sprague Dawley rats were used. Rats were housed in Lucite cages with aspen wood chip bedding, maintained on a 12:12 light:dark cycle (lights on at 5 AM), and given ad libitum access to Purina lab chow (USA) and tap water throughout the study. Rats were first anesthetized using 3.5-4% isoflurane, then the ears were protected with 1.5×1.5 mm foam plugs (Pura-Fit®, Moldex-Metric Inc., Culver City, Calif.), and the rat was placed into a head access rodent thoracic restrainer (Stoelting, USA) to protect the body while allowing the head to move freely. […]
PEL (Positive emotional learning) was conducted 48 hours post-blast. […] High frequency ultrasonic vocalizations (USVs) were recorded and analyzed by sonogram with Avasoft SASlab Pro (Germany) as previously described by Burgdorf et al., “Positive emotional learning is regulated in the medial prefrontal cortex by GluN2B-containing NMDA receptors,” Neuroscience, 192:515-523, 2011. Frequency modulated 50-kHz USVs that occurred during each the no-stimulation periods were quantified to measure PEL. […]

Plasma stability, rat = format: in vitro ADME
Protocol: Plasma stability for Compound AA and Compound BB was investigated. The following table indicates the percent of Compound AA and Compound BB remaining after 60 minutes.

NR2A = NR2A (Homo sapiens, UniProt Q12879); test: Potentiation of [3H]MK-801 binding, wild-type NMDAR2A; set-up: species or system rat
Sequence of NR2A (Q12879 23-1464, species assumed, other chains not shown): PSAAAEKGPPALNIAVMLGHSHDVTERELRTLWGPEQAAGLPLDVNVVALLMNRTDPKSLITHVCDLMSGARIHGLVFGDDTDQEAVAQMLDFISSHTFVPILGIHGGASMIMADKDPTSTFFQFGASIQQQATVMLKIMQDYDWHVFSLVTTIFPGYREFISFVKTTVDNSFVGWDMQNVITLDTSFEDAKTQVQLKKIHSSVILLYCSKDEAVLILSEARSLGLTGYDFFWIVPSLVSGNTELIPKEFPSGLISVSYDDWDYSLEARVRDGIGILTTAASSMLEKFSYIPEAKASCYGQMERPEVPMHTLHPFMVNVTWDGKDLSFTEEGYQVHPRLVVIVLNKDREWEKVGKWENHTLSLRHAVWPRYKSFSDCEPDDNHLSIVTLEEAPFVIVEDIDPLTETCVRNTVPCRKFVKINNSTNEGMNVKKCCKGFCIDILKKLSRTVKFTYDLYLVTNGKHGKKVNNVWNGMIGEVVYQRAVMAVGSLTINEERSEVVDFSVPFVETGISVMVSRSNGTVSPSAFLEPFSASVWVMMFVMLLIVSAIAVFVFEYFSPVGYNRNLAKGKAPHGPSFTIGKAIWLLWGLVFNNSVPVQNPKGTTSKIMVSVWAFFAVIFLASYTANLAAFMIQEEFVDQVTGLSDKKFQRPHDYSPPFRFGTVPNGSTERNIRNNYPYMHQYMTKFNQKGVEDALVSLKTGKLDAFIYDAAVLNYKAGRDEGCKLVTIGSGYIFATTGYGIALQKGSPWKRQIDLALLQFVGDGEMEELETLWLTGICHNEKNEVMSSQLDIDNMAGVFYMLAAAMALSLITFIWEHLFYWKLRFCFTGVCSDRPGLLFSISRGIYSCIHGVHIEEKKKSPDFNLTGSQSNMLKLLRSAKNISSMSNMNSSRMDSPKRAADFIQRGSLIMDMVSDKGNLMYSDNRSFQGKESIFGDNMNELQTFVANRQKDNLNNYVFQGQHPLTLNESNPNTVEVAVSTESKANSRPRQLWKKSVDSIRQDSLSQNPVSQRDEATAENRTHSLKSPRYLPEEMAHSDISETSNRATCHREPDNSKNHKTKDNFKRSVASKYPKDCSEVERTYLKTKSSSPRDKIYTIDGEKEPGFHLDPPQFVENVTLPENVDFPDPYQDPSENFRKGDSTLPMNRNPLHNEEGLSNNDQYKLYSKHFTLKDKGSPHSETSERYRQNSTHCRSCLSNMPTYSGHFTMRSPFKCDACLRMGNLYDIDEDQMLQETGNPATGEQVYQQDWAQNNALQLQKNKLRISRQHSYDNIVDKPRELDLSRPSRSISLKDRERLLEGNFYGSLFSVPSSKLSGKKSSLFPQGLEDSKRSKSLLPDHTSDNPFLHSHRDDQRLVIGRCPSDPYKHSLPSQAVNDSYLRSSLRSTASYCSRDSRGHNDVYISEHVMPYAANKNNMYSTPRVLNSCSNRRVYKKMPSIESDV

[2] = Microsomal stability, rat; format: in vitro ADME; conditions: rat microsomes
Protocol: Microsomal stability for Compound AA and Compound BB was investigated. The following table indicates the percent of Compound AA and Compound BB remaining after 60 minutes.

Structure (SMILES): C[C@@H](O)[C@@H](C(N)=O)N1C[C@@]2(CCCN2S(C)(=O)=O)C1=O [Compound BB, (2S,3R)-3-hydroxy-2-((S)-5-(methylsulfonyl)-1-oxo-2,5-diazaspiro[3,4]octan-2-yl)butanamide]
- long-term potentiation after high frequency stimulation [1]: increased long-term potentiation
- blast-induced cognitive deficits as measured by PEL (Sprague Dawley rats): reversed blast-induced cognitive deficits
- Plasma Stability (% remaining at 60 min) Rat (Plasma stability, rat): 86%
- NR2A A (%) (activity) (NR2A; potentiation of [3H]MK-801 binding): 0%
- NMDAR2A BINDING PROFILE % 1 mM Glycine (NR2A; relative to 1 mM glycine): 0%
- binding to NR2A (in words) (NR2A; statement in description): substantially no binding
- NMDAR2A BINDING PROFILE Conclusion (NR2A; wild-type NMDAR2A): WT2A no
- Microsomal Stability (% remaining at 60 min) Rat [2]: 96%
